Here are results for 29 molecules from PubChem BioAssay AID485337 (Sanford-Burnham Center for Chemical Genomics, 2010).

The source made the active and inactive calls. The rule behind the calls is not given here.

For this experiment, the target named is SUMO-conjugating enzyme UBC9 (Homo sapiens) (UniProt P63279). In words: UBC9-dependent SUMO conjugation inhibition – biochemical, HTRF, set 2, SAR follow-up (AID 485337). The settings on record: in vitro SUMOylation, HTRF read-out.
Sequence of SUMO-conjugating enzyme UBC9 (Homo sapiens) (P63279 whole entry, looked up): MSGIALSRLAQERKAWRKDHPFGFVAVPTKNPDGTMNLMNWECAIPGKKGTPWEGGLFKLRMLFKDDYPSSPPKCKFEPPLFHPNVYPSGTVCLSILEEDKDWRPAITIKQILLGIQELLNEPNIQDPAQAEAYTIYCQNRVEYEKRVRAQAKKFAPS
The IC50 is the concentration needed to halve the response being measured. Consider `COc1ccc(CN2C(=O)C(NC(C)=O)c3ccccc32)cc1` (centres undefined), for which the IC50 is > 100 µM (inactive).

Regarding `CCCCn1c(NC(=O)c2ccc(Cl)cc2)c(C#N)c2nc3ccccc3nc21`, the half-inhibitory concentration (IC50) was 22.6 µM.

Take `COc1ccc2c(c1)C(NC(C)=O)C(=O)N2CCOc1ccccc1` (centres undefined): the IC50 was > 100 µM (inactive).

For the molecule `CCCCn1c(NC(=O)c2ccccc2)c(S(=O)(=O)c2ccc(C)cc2)c2nc3ccccc3nc21`, the IC50 entry was “inactive”.

As to `CC(=O)NC1C(=O)N(CCN2CCOCC2)c2ccc(C)cc21` (centres undefined), the IC50 was > 100 µM (inactive).

`COCCNC(=O)c1c(NC(=O)c2ccccc2)n(Cc2ccccc2)c2nc3ccccc3nc12`: the IC50 was 13.4 µM.

`COc1ccc2c(c1)C(NC(C)=O)C(=O)N2CC1COc2ccccc2O1` (centres undefined): the IC50 is > 100 µM (inactive).

For the molecule `CCCN1C(=O)C(NC(C)=O)c2cc(OC)ccc21` (centres undefined), the IC50 is > 100 µM (inactive).

With `CCCCNC(=O)c1c(NC(=O)c2ccccc2)n(Cc2ccccc2)c2nc3ccccc3nc12`, the IC50 is 30.6 µM.

For the molecule `COc1ccc2c(c1)C(NC(C)=O)C(=O)N2CCc1ccccc1` (centres undefined), the IC50 is > 100 µM (inactive).

Take `COCCn1c(NC(=O)c2ccc(Cl)cc2)c(S(=O)(=O)c2ccc(C)cc2)c2nc3ccccc3nc21`: the IC50 is 78.8 µM.

In the case of `CCCCn1c(NC(=O)c2ccccc2Cl)c(S(=O)(=O)c2ccccc2)c2nc3ccccc3nc21`, the IC50 was 37.6 µM.

On to `COc1ccc2c(c1)C(NC(C)=O)C(=O)N2CCN1CCOCC1` (centres undefined), for which the half-inhibitory concentration (IC50) is 6.06 µM.

Consider `COc1cc(/C=C2\C(=O)N(c3ccccc3)N=C2C)ccc1OCc1ccccc1`, for which the IC50 was > 100 µM (inactive).

Regarding `Cc1cc(C)c2c(c1)C(=O)C(=O)N2CCN1CCOCC1`, the IC50 is > 100 µM (inactive).

For the molecule `COc1cc(/C=C2\C(=O)N(c3ccccc3)N=C2C)ccc1O`, the IC50 is > 100 µM (inactive).

With `S=c1[nH]nc(-c2cc(-c3ccccc3)n[nH]2)n1N=Cc1ccc(Br)s1`, the IC50 result was “inactive”.

In the case of `CCCCn1c(NC(C)=O)c(C#N)c2nc3ccccc3nc21`, the IC50 was 3.39 µM.

Turning to `COc1cc(/C=C2\C(=O)N(c3ccccc3)N=C2C)ccc1OC(=O)c1cccs1`, the IC50 was > 100 µM (inactive).

As for `N#Cc1c(NC(=O)c2ccccc2Cl)n(C2CCCCC2)c2nc3ccccc3nc12`, the IC50 was 23.1 µM.

As for `CCCCn1c(NC(=O)c2ccco2)c(S(=O)(=O)c2ccc(C)cc2)c2nc3ccccc3nc21`, the 50% inhibitory concentration (IC50) was 12.5 µM.

As for `CCCCn1c(N)c(S(=O)(=O)c2ccc(C)cc2)c2nc3ccccc3nc21`, the half-inhibitory concentration (IC50) is 9.28 µM.

Regarding `COc1ccc2c(c1)C(=O)C(=O)N2CCN1CCOCC1`, the IC50 is > 100 µM (inactive).

In the case of `CCCCCn1c(NC(=O)c2ccco2)c(C(=O)OCC)c2nc3ccccc3nc21`, the IC50 is 14.8 µM.

Consider `CCCCn1c(NC(=O)c2ccccc2)c(C#N)c2nc3ccccc3nc21`, for which the half-maximal inhibitory concentration (IC50) was 16.4 µM.

Regarding `Nc1c(C(=O)NCc2ccco2)c2nc3ccccc3nc2n1Cc1ccccc1`, the IC50 was 31.1 µM.

In the case of `CCCCn1c(NC(=O)CC)c(S(=O)(=O)c2ccc(C)cc2)c2nc3ccccc3nc21`, the IC50 result was “inactive”.

On to `N#Cc1c(NC(=O)c2ccccc2Cl)n(Cc2ccccc2)c2nc3ccccc3nc12`, for which the half-maximal inhibitory concentration (IC50) is 12.2 µM.

With `CCCCn1c(NC(=O)c2ccco2)c(C#N)c2nc3ccccc3nc21`, the concentration for half-maximal inhibition (IC50) was 8.06 µM.
